For one test, the target named is T1, hVAChT W325F (Homo sapiens, UniProt Q16572, W325F).
T1 sequence (Q16572 1-532 W325F): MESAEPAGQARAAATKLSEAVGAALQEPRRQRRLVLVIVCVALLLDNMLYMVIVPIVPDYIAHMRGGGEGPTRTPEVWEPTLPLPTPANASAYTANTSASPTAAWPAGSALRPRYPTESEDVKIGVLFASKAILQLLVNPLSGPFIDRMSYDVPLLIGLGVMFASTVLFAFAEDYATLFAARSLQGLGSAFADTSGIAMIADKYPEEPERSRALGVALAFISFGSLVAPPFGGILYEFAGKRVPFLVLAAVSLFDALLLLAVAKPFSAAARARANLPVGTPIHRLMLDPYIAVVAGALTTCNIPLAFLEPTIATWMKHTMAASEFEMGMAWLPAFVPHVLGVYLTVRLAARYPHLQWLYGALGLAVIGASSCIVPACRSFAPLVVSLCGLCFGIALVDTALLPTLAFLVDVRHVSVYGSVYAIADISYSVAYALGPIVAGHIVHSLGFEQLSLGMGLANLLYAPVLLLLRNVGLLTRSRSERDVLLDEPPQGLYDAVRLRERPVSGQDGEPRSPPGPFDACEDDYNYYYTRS
As to the kind of experiment: [3H]ACh transport. Type of test: biochemical.

The next test deals with T2, hVAChT C391A (Homo sapiens, UniProt Q16572, C391A).
T2 sequence (Q16572 1-532 C391A): T1 sequence (Q16572 1-532 W325F) with F325W, C391A
As to the kind of experiment: [3H]ACh transport. It is filed as biochemical.

A further test deals with T3, hVAChT F392A (Homo sapiens, UniProt Q16572, F392A).
T3 sequence (Q16572 1-532 F392A): T1 sequence (Q16572 1-532 W325F) with F325W, F392A
As to the kind of experiment: ACh equilibrium binding by competition against [3H]vesamicol.

Another test addresses T4, hVAChT Y60W (Homo sapiens, UniProt Q16572, Y60W).
T4 sequence (Q16572 1-532 Y60W): T1 sequence (Q16572 1-532 W325F) with Y60W, F325W
As to the kind of experiment: [3H]vesamicol saturation binding. The settings on record: pH 7.4.

Numbering of substitutions follows the chain as printed.

The term Km denotes the substrate concentration at which the rate is half of its maximum. As a reminder, the Kd is the concentration at which binding is half-saturated. Take `CC(=O)OCC[N+](C)(C)C` [ACh, acetylcholine]: the “Vmax/Bmax, ACh transport normalized to Bmax” value at hVAChT W325F (pH 7.4) was found to be 5.0 ± 0.5 min⁻¹; on hVAChT C391A (C391A hVAChT, pH 7.4), 15 ± 2 min⁻¹. Moreover, the Km on hVAChT W325F (read-out: KM, Michaelis-Menten constant for ACh transport, pH 7.4) is 1000 ± 300 µM; at hVAChT C391A (read-out: KM, Michaelis-Menten constant for ACh transport, C391A hVAChT, pH 7.4) it was 1800 ± 300 µM. The “ACh transport faster than wild-type” value on hVAChT C391A (C391A hVAChT vs wild-type) was “about 2 times”. At hVAChT F392A, the Kd amounted to 7.9 ± 1.3 mM. On hVAChT F392A (F392A hVAChT, pH 7.4), the “FHA, fraction of the ACh sites that have high affinity” value stood at 0.91 ± 0.06.

For the molecule `O[C@@H]1CCCC[C@H]1N1CCC(c2ccccc2)CC1` (racemic) [vesamicol, ( )-trans-2-(4-phenylpiperidino)cyclohexanol], on hVAChT Y60W, the “Bmax, maximal specific [3H]vesamicol binding (VAChT expression level)” value came to 34 ± 3 pmol/mg.

The values are drawn from paper PMC2962730 (Journal of neurochemistry, 2010).
